From ChEMBL document CHEMBL1201862, “PubChem BioAssay data set” (2004)
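Cells were grown in 96-well plates and exposed to each compound for 48 hours at five concentrations; endpoints were interpolated linearly between bracketing concentrations, or set to the highest concentration if not reached. GI50 = concentration required for 50% inhibition of growth.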 Calls of active or inactive are those of the source. No stated cut-off is given here; in the data, active = GI50 up to about 1.1 µM and inactive = higher.

What was measured:
Assay in all cases: NCI anticancer screen, dose series, 48 h
SK-MEL-28 = test system: SK-MEL-28
SN12C = test system: SN12C
SW-620 = test system: SW-620
A549 = test system: A549
M14 = test system: M14
SF-295 = test system: SF-295
NCI-H460 = test system: NCI-H460
BT-549 = test system: BT-549
NCI-H226 = test system: NCI-H226
MCF7 = test system: MCF7
CAKI-1 = test system: CAKI-1
OVCAR-8 = test system: OVCAR-8
HCT-15 = test system: HCT-15
K562 = test system: K562
Hs-578T = test system: Hs-578T
SNB-19 = test system: SNB-19
HCC 2998 = test system: HCC 2998
ACHN = test system: ACHN
CCRF-CEM = test system: CCRF-CEM
KM12 = test system: KM12
OVCAR-3 = test system: OVCAR-3
NCI/ADR-RES = test system: NCI/ADR-RES
EKVX = test system: EKVX
U-251 = test system: U-251
SF-539 = test system: SF-539
A498 = test system: A498
HL-60 = test system: HL-60
HT-29 = test system: HT-29
LOX IMVI = test system: LOX IMVI
786-0 = test system: 786-0
UACC-62 = test system: UACC-62
T47D = test system: T47D
SK-OV-3 = test system: SK-OV-3
SF-268 = test system: SF-268
HCT-116 = test system: HCT-116
Malme-3M = test system: Malme-3M
MDA-N = test system: MDA-N
COLO 205 = test system: COLO 205
SNB-75 = test system: SNB-75
DU-145 = test system: DU-145
NCI-H23 = test system: NCI-H23
IGROV-1 = test system: IGROV-1
SK-MEL-2 = test system: SK-MEL-2
MOLT-4 = test system: MOLT-4
TK-10 = test system: TK-10
NCI-H522 = test system: NCI-H522
UO-31 = test system: UO-31
RXF 393 = test system: RXF 393
HOP-92 = test system: HOP-92
UACC-257 = test system: UACC-257
PC-3 = test system: PC-3
SK-MEL-5 = test system: SK-MEL-5
RPMI-8226 = test system: RPMI-8226
MDA-MB-435 = test system: MDA-MB-435
SR = test system: SR
OVCAR-4 = test system: OVCAR-4
OVCAR-5 = test system: OVCAR-5
HOP-62 = test system: HOP-62
MDA-MB-231 = test system: MDA-MB-231

With `CC1CCC2N(C1)CC1C3(O)CC45OC6(O)C(O)CCC4(C)C6CCC5C3(O)CC(O)C1(O)C2(C)O` (stereo not drawn) the GI50 (SK-MEL-28) was > 100 µM (inactive), the GI50 (SN12C) was > 100 µM (inactive) and the GI50 (SW-620) was > 100 µM (inactive). For the same compound, the GI50 (A549) was > 100 µM (inactive), the GI50 (M14) was > 100 µM (inactive) and the GI50 (SF-295) was > 100 µM (inactive). The GI50 (NCI-H460) was > 100 µM (inactive), the GI50 (BT-549) was > 100 µM (inactive) and the GI50 (NCI-H226) was > 100 µM (inactive). For the same compound, the GI50 (MCF7) was > 100 µM (inactive), the GI50 (CAKI-1) was > 100 µM (inactive) and the GI50 (OVCAR-8) was > 100 µM (inactive). The GI50 (HCT-15) was greater than 100000 nM, the GI50 (K562) was > 100 µM (inactive) and the GI50 (Hs-578T) was > 100 µM (inactive). The GI50 (SNB-19) was > 100 µM (inactive), the GI50 (HCC 2998) was > 100 µM (inactive) and the GI50 (ACHN) was > 100 µM (inactive). The GI50 (CCRF-CEM) was > 100 µM (inactive), the GI50 (KM12) was > 100 µM (inactive) and the GI50 (OVCAR-3) was > 100 µM (inactive). The GI50 (NCI/ADR-RES) was > 100 µM (inactive), the GI50 (EKVX) was > 100 µM (inactive) and the GI50 (U-251) was > 100 µM (inactive). The GI50 (SF-539) was > 100 µM (inactive), the GI50 (A498) was > 77.6 µM (inactive) and the GI50 (HL-60) was > 100 µM (inactive). The GI50 (HT-29) was > 100 µM (inactive), the GI50 (LOX IMVI) was > 100 µM (inactive) and the GI50 (786-0) was > 100 µM (inactive). The GI50 (UACC-62) was > 100 µM (inactive), the GI50 (T47D) was > 100 µM (inactive) and the GI50 (SK-OV-3) was > 100 µM (inactive). The GI50 (SF-268) was > 100 µM (inactive), the GI50 (HCT-116) was > 100 µM (inactive) and the GI50 (Malme-3M) was > 100 µM (inactive). For the same compound, the GI50 (MDA-N) was > 100 µM (inactive), the GI50 (COLO 205) was > 100 µM (inactive) and the GI50 (SNB-75) was > 100 µM (inactive). For the same compound, the GI50 (DU-145) was > 100 µM (inactive), the GI50 (NCI-H23) was > 100 µM (inactive) and the GI50 (IGROV-1) was > 100 µM (inactive). For the same compound, the GI50 (SK-MEL-2) was > 100 µM (inactive), the GI50 (MOLT-4) was > 100 µM (inactive) and the GI50 (TK-10) was > 100 µM (inactive). For the same compound, the GI50 (NCI-H522) was > 100 µM (inactive), the GI50 (UO-31) was > 100 µM (inactive) and the GI50 (RXF 393) was > 100 µM (inactive). The GI50 (HOP-92) was > 100 µM (inactive), the GI50 (UACC-257) was > 100 µM (inactive) and the GI50 (PC-3) was > 100 µM (inactive). The GI50 (SK-MEL-5) was > 100 µM (inactive), the GI50 (RPMI-8226) was > 100 µM (inactive) and the GI50 (MDA-MB-435) was > 100 µM (inactive). The GI50 (SR) was > 100 µM (inactive), the GI50 (OVCAR-4) was > 100 µM (inactive) and the GI50 (OVCAR-5) was > 100 µM (inactive). For the same compound, the GI50 (HOP-62) was > 100 µM (inactive) and the GI50 (MDA-MB-231) was > 100 µM (inactive).

With `CC1OC(OC2C(O[C@H]3CC[C@@]4(C)C(=CC[C@H]5[C@@H]6C[C@@H]7O[C@]8(CC[C@@H](C)CO8)[C@@H](C)[C@@H]7[C@@]6(C)CC[C@@H]54)C3)OC(CO)C(O)C2O)C(O)C(O)C1O` (stereo partly drawn) the GI50 (SK-MEL-28) was 5.31 µM (inactive), the GI50 (SN12C) was 1.1 µM (active) and the GI50 (SW-620) was 0.681 µM (active). The GI50 (A549) was 0.647 µM (active), the GI50 (M14) was 1.22 µM (inactive) and the GI50 (SF-295) was 1.15 µM (inactive). For the same compound, the GI50 (NCI-H460) was 0.327 µM (active), the GI50 (BT-549) was 4.49 µM (inactive) and the GI50 (NCI-H226) was 2.49 µM (inactive). The GI50 (MCF7) was 1.82 µM (inactive), the GI50 (CAKI-1) was 1.7 µM (inactive) and the GI50 (OVCAR-8) was 1.45 µM (inactive). The GI50 (HCT-15) was 1960 nM, the GI50 (K562) was 1.57 µM (inactive) and the GI50 (Hs-578T) was 1.86 µM (inactive). For the same compound, the GI50 (SNB-19) was 1.01 µM (active), the GI50 (HCC 2998) was 1.11 µM (active) and the GI50 (ACHN) was 1.58 µM (inactive). For the same compound, the GI50 (CCRF-CEM) was 0.507 µM (active), the GI50 (KM12) was 0.838 µM (active) and the GI50 (OVCAR-3) was 3.4 µM (inactive). The GI50 (NCI/ADR-RES) was 1.99 µM (inactive), the GI50 (EKVX) was 3.1 µM (inactive) and the GI50 (U-251) was 0.544 µM (active). The GI50 (SF-539) was 1.21 µM (inactive), the GI50 (A498) was 1.51 µM (inactive) and the GI50 (HL-60) was 0.74 µM (active). For the same compound, the GI50 (HT-29) was 0.962 µM (active), the GI50 (LOX IMVI) was 0.805 µM (active) and the GI50 (786-0) was 1.14 µM (inactive). The GI50 (UACC-62) was 1.4 µM (inactive), the GI50 (T47D) was 3.76 µM (inactive) and the GI50 (SK-OV-3) was 3.05 µM (inactive). For the same compound, the GI50 (SF-268) was 2.44 µM (inactive), the GI50 (HCT-116) was 1.54 µM (inactive) and the GI50 (Malme-3M) was 3.15 µM (inactive). For the same compound, the GI50 (MDA-N) was 3.29 µM (inactive), the GI50 (COLO 205) was 2.95 µM (inactive) and the GI50 (SNB-75) was 1.24 µM (inactive). The GI50 (DU-145) was 1.26 µM (inactive), the GI50 (NCI-H23) was 2.28 µM (inactive) and the GI50 (IGROV-1) was 2.8 µM (inactive). For the same compound, the GI50 (SK-MEL-2) was 2.63 µM (inactive), the GI50 (MOLT-4) was 2.64 µM (inactive) and the GI50 (TK-10) was 1.53 µM (inactive). The GI50 (NCI-H522) was 1.28 µM (inactive), the GI50 (UO-31) was 0.638 µM (active) and the GI50 (RXF 393) was 1.54 µM (inactive). For the same compound, the GI50 (HOP-92) was 2.95 µM (inactive), the GI50 (UACC-257) was 1.8 µM (inactive) and the GI50 (PC-3) was 0.581 µM (active). For the same compound, the GI50 (SK-MEL-5) was 3.97 µM (inactive), the GI50 (RPMI-8226) was 0.698 µM (active) and the GI50 (MDA-MB-435) was 1.41 µM (inactive). For the same compound, the GI50 (SR) was 2.77 µM (inactive), the GI50 (OVCAR-4) was 1.22 µM (inactive) and the GI50 (OVCAR-5) was 2.93 µM (inactive). The GI50 (HOP-62) was 1.34 µM (inactive) and the GI50 (MDA-MB-231) was 1.14 µM (inactive).
